This is an account of results in patent publication US20230406850A1, “CRYSTALLINE FORM OF HETEROCYCLIC COMPOUND, PREPARATION METHOD THEREFOR AND APPLICATION THEREOF” (WUHAN LL SCIENCE AND TECHNOLOGY DEVELOPMENT CO., LTD., priority 2020, published 2023).

Converted amounts (≈) assume the structure as drawn.

Data set [1] is described as follows: Solubility in biological media SGF, FaSSIF and FeSSIF. Format: physicochemical. The method, then: Compared with other crystalline forms, crystalline forms I, III and V show good solid properties, so their solubility was tested respectively.
10 mg of the sample was weighed, and then 2.0 mL of biological media buffer (i.e. the target concentration is 5 mg/mL) was added to form a suspension. The mixture was put in a constant temperature water bath shaker (37° C., 100 rpm), and sampled 500 μL at 0.5, 2 and 24 hours respectively. After filtration, the pH value and HPLC concentration of filtrate were tested respectively, and the solid sample obtained by filtration was tested by XRPD.

A short description of data set [2]: Water activity experiment (slurry in acetone/water). Format: physicochemical. Particulars: three days. The method, then:
Water activity experiment was carried out. Crystalline forms I and V ([…]) were slurried in a mixed solvent in acetone/water with different water contents at room temperature and 60° C. for three days, and after three days, solid sample was filtered to test XRPD, and the experimental results are as shown in Table 4.

Data set [3] in a line: Pharmacokinetics, crystalline form I versus crystalline form V. Format: in vivo, Beagle dog. Particulars: 10 mg/kg po, fasting, male dogs. The procedure: Beagle dog (general grade, Beijing Masi Biotechnology Co., Ltd.) was given compound A by single oral gavage to study the pharmacokinetics of the compound in plasma. The test drug (100 mg/kg dosage, 5 mL/kg administration volume) was given by gavage, and samples were collected at 10 minutes, 30 minutes, 1 hour, 2 hours, 4 hours, 6 hours, 8 hours, 10 hours, 24 hours and 48 hours after administration: peripheral venipuncture was performed, and about 1.0 mL whole blood was collected from each animal at every time point, and blood samples were collected. Within 60 minutes after blood collection, 0.2 mL of whole blood was separated into a cryopreservation tube, and deionized water was added at a ratio of 1:1, which was mixed upside down and then frozen. The remaining samples were centrifuged at 2,000 g at 2 to 8° C. for 10 min to obtain plasma samples, and the hemolysis of each sample was recorded, and the influence on detection was evaluated, and then the color of plasma was observed and recorded on the blood collection table (“−” means no hemolysis, “+” means pink supernatant and “++” means red supernatant).
The concentration of compound A in plasma was determined by LC-MS/MS method (Non-GLP). The pharmacokinetic parameters were calculated by WinNonlin (Phoenix™, version 8.1) or other similar software. If applicable plasma drug concentration-time data are available, the following pharmacokinetic parameters are calculated: CL (clearance), Vss (steady-state apparent volume of distribution), T1/2 (elimination half-life), Cmax (peak concentration), Tmax (peak time), AUC (area under the concentration-time curve), MRT (mean residence time). Pharmacokinetic data were described by descriptive statistics, such as mean, standard deviation and sample size.
Comparison of crystalline form and crystalline form V is the same for 3 dogs (male), 10 mg/kg po, fasting, 0.5% CMC-Na stirring for 3 hours, and then administration (suspension), and the data obtained are as shown in Table 7.

Data set [4] can be described thus: Competitive slurrying experiment of crystalline forms I and V. Format: physicochemical. Conditions: acetone, ethanol, room temperature and 60° C., three days. The method, then:
Competitive slurrying experiment was carried out: the same amount of crystalline forms I and V were weighed and mixed evenly, then XRPD was tested, and the results were used as T0 of competitive slurrying experiment. The mixture was slurried in acetone, ethanol and water at room temperature and 60° C. Three days later, solid samples were obtained by filtration, and. XRPD was tested.

The nature of data set [5]: Dynamic vapor sorption (DVS) hygroscopicity. Format: physicochemical. The procedure:
The solid was analyzed by DVS using IGA sorp dynamic vapor sorption instrument. • Temperature: 25° C. • Gas flow: 250 mL/min. • Scan cycle: 2. • Minimum test time: 30 min. • Maximum test time: 2 hours. • Waiting for balance: 98%.

Data set [6] in a line: Mechanical stability test (grinding and pelleting). Format: physicochemical. Particulars: grinding 2 min and 5 min. The method, then: The mechanical stability of crystalline forms I and III were investigated by grinding and pelleting. Grinding test method: the sample to be measured was put in a mortar and grinded for 2 minutes and 5 minutes respectively, then XRPD was test, and the changes of crystalline form and crystallinity were observed. Pelleting test method: the sample was placed in the die of tablet press, kept at 40 MPa for one minute, and then the crystalline form taken out to test XRPD.

Data set [7] is described as follows: Solid-state crystal transformation between crystalline forms I and V. Format: physicochemical. Conditions: mixture of forms I and V, oven at 60° C. and room temperature dryer, one week.
Data set [8] in a line: Physical and chemical stability (stability boxes, XRPD and HPLC). Format: physicochemical. The method, then: About 10 mg of crystalline forms I, III and V were placed in the stability boxes at 40° C./75% RH (open) and 60° C. (covered) for seven days, and some samples were taken out for XRPD and HPLC tests at 0 and 7 days, respectively, to investigate their physical and chemical stability.

Data set [9] relates to SD rats. In words: Taste disorder test by double bottle method. Format: in vivo, rat. Particulars: single intraperitoneal injection, 15 minutes. The text has this:
SPF male SD rats (6-8 weeks) received 3 days of adaptive drinking water training immediately after storage, and the specific training content was that animals were kept in a single cage, and two bottles of water (both common drinking water) were placed in each cage, and during the adaptive training, water treatment was forbidden all night (the drinking water bottle was removed), and drinking water was given again at 8:30 am to 5:30 pm, and then this cycle lasted for 3 days, and the two bottles of water were changed every day, and during the whole adaptive training period, animals were ate freely. All animal water bottles were removed 20 hours before the formal experiment, and water was banned until the time of the experiment. During the formal experiment, all animals were randomly divided into groups, and the test compound or vehicle was given before the water supply was renewed, and the drug was given by single intraperitoneal injection, and the administration time was determined according to the Tmax of the test compound. Then, the animals were placed in a single cage, and given two bottles of drinking water, one bottle of ordinary drinking water and one bottle of 0.3 mM tonic water, and the water consumption of animals was observed within 15 minutes, and the quinine water consumption/ordinary water consumption was statistically analyzed, with positive compound 2 as the positive control of taste disorder.

In data set [10] the test system is refractory cough. Conditions: phase II clinical trial; cited from earlier work.
Setting [11] is: male, beagle, dog, plasma, po, 10 mg/kg, 0.5% CMC-Na suspension.

With `COC(=O)N1CCO[C@@H](Cc2c(-c3c(F)cc(S(N)(=O)=O)cc3F)nc3cc(Cl)ccn23)C1` [Crystalline form I, methyl (S)-2-((7-chloro-2-(2,6-difluoro-4-sulfamoylphenyl)imidazo[1,2-a]pyridin-3-yl)methyl)morpholine-4-carboxylate], in data set [1] (FaSSIF and FeSSIF buffer), the “crystalline form during the solubility test” value is reported as “transformed into hydrate of crystalline form IV”. In addition, the pH of filtrate in [1] (FaSSIF, 0.5 h) is listed as 6.4; in data set [1] (FaSSIF, 2 h), 6.4; in [1] (FaSSIF, 24 h) it was 6.4; in data set [1] (FeSSIF, 0.5 h), 5.0; in [1] (FeSSIF, 2 h), 5.1; in data set [1] (FeSSIF, 24 h), 5.1. Besides, the pH of filtrate in [1] (SGF, 0.5 h) turned out to be 1.2; in data set [1] (SGF, 2 h), 1.3; in data set [1] (SGF, 24 h), 1.2. In addition, the Solubility (usually how much of the substance goes into solution per volume) was 26 µg/mL (≈ 51.9 µM) in data set [1] (FaSSIF, 0.5 h, 37° C.); 25 µg/mL (≈ 49.9 µM) in data set [1] (FaSSIF, 2 h, 37° C.); 34 µg/mL (≈ 67.9 µM) in data set [1] (FaSSIF, 24 h, 37° C.). In addition, the solubility (as a rule, the dissolved amount per volume that the medium holds) at 0.5 h in [1] (FeSSIF, 37 °C, fessif, thermodynamic from solid, FeSSIF, 0.5 h, 37° C., read-out: Solubility) is 72 µg/mL (≈ 144 µM). In [1] (FeSSIF, 37 °C, fessif, thermodynamic from solid, FeSSIF, 2 h, 37° C., read-out: Solubility), the solubility at 2 h is 83 µg/mL (≈ 166 µM). The molecule further yielded a solubility at 24 h in [1] (FeSSIF, 37 °C, thermodynamic from solid, 24 h) of 107 µg/mL (≈ 214 µM). Besides, the “The experimental results (crystalline form)” value is on record as “Crystalline form VI” in data set [2] (water content 10%, 60° C.); “Crystalline form I” in data set [2] (water content 10%, RT); “Crystalline form IV” in data set [2] (water content 50%, 60° C.); “Crystalline form IV” in data set [2] (water content 50%, RT); “Crystalline form IV” in data set [2] (water content 90%, 60° C.); “Crystalline form IV” in [2] (water content 90%, RT). For the same molecule, the “AUC (crystalline form I):AUC (crystalline form V)” value in data set [3] came to 300.53%. The AUClast in data set [3] (0.5% CMC-Na suspension, plasma) was found to be 7926.33 ng·h/mL. In addition, the Cmax (as a rule, the peak of the concentration-time curve) in [3] (0.5% CMC-Na suspension, plasma) stood at 991.33 ng/mL. The F in [3] (0.5% CMC-Na suspension, plasma) is on record as 35.2%. The same molecule came in with a T1/2 in data set [3] (0.5% CMC-Na suspension, plasma) of 11.91 h. Further, the Tmax – broadly, the time at which the peak concentration occurs – in data set [3] (0.5% CMC-Na suspension, plasma) is 2.00 h. Further, in data set [3] (setting [11]), the AUC(0-inf) (as a rule, total exposure, with the tail of the curve extrapolated) came to 8940 ng·h/mL. Besides, in [3] (setting [11]), the MRT last – broadly, the average time that molecules of a dose stay in the body – was found to be 8.11 h. Besides, the “relative stability inferred from competitive slurrying and water activity tests” value in data set [4] is “more stable in organic solvent system or mixed solvent with low water content (≤10%)”. In addition, in data set [5], the “XRPD before and after the DVS test” value is “remains unchanged”. For the same molecule, the “relative humidity above which transformed into hydrate of crystalline form IV” value in data set [5] is given as “higher than 40 % RH”. For the same molecule, the “DVS pattern, behaviour in words” value in data set [5] (25° C.) is “increases sharply”. Moreover, the “hygroscopicity (DVS)” value in data set [5] (80% RH, 25° C.) was determined as 6.8%. For the same molecule, in [6], the “crystalline form and crystallinity after grinding” value is “decreased significantly”. The “mutual crystal transformation in solid state” value in data set [7] is “no mutual crystal transformation trend”. Further, the “Initial purity (Peak area %)” value in [8] (0 days) was 99.38 peak area %. The results for the “Purity -7 days (peak area %)” value in [8] (40° C./75% RH (open)) and in [8] (60° C. (covered)) were 99.38 peak area % and 99.37 peak area %, respectively. Moreover, the “stability conclusion in words” value in [8] (40° C./75% RH and 60° C., seven days) was “good chemical stability”.

In the case of `COc1cc(C(C)C)c(Oc2cnc(N)nc2N)cc1S(N)(=O)=O` [Positive compound 2, reference compound], the “Quinine/tap water * 100%” value in data set [9] (10 mg/kg) worked out at 18.62%. The “Quinine/tap water * 100%” value in data set [9] (20 mg/kg) is listed as 34.99%. In data set [10], the “effect on refractory cough” value is “good effect” and the taste side effect result is on record as “taste disturbance is a serious problem”.
